Measurements taken from ChEMBL document CHEMBL1201862, “PubChem BioAssay data set” (2004).
Active and inactive are the calls of the source.

What was measured:
[1] = biological target: T1, Nuclear receptor subfamily 0 group B member 1 (Homo sapiens, UniProt P51843); test: Luminescence-based cell-based high throughput dose response assay for inhibitors of the orphan nuclear receptor subfamily 0, group B, member 1 (DAX1; NR0B1). [Related pubchem assays (depositor defined):AID504766, AID504790]; type: functional
T1 sequence (P51843 whole entry): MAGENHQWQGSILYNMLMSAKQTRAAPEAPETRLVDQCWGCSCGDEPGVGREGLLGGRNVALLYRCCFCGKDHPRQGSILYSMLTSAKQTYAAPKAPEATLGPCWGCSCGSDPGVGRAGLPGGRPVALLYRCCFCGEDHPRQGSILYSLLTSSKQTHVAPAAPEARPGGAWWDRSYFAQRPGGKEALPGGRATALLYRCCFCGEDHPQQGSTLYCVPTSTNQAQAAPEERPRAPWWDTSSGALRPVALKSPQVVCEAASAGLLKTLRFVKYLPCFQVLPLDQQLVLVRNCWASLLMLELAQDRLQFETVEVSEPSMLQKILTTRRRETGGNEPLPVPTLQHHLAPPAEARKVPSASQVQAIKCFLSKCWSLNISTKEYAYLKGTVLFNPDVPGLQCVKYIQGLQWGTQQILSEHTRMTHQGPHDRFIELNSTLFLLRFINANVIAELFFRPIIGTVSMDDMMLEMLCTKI

HEK293 = test: cells; type: functional, cell-based; conditions: Homo sapiens
[2] = viability of PTEN-deleted HCT116 cells – cell-based, HCT116 PTEN knockout, dose response (AID 1047); type: functional;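 note: HCT116 colon tumor cells with PTEN knocked out; cells exposed to compound for 60 hours before readout; potency for loss of cell viability measured by luminescence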
[3] = THP-1 cell cytotoxicity, dose response, cytotoxicity control for non-replicating M. tuberculosis project (AID 489025); type: functional
cells = type: functional
[4] = Vero E6 cell cytotoxicity, dose response, cytotoxicity control for non-replicating M. tuberculosis project, secondary assay (AID 492998); type: functional, VeroE6; conditions: Vero C1008
[5] = viability of HCT116 lacking mutant beta-catenin – cell-based, human colon tumor, dose response (AID 1045); type: functional;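 note: HCT116 colon tumor cells with beta catenin knocked out; cells exposed to compound for 60 hours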
[6] = biological target: T2, Heat shock factor protein 1 (Mus musculus, UniProt P38532); test: decrease of HSF1-responsive luciferase luminescence – cell-based, NIH3T3, dose retest, confirmation (AID 2382); type: functional;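 note: NIH3T3 fibroblasts with HSF1-driven luciferase reporter stressed by proteasome inhibitor MG132; luminescence from HSF1-driven luciferase expression after 8 hours of MG132 stress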
T2 sequence (P38532 whole entry): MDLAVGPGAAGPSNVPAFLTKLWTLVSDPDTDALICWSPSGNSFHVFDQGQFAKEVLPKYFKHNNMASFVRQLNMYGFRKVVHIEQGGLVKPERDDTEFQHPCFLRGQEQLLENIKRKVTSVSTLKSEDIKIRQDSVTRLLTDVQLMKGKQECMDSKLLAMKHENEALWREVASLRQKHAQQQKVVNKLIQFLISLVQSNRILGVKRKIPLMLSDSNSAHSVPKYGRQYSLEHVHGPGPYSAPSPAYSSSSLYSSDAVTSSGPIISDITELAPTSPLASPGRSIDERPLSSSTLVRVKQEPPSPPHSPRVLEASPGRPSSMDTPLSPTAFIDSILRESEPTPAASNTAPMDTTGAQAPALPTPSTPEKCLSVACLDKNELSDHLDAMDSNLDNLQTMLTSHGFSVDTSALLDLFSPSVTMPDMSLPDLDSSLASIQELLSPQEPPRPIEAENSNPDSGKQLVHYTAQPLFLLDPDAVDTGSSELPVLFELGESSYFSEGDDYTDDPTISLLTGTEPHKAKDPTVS

[7] = microbe, parasite or virus in culture; type: functional; conditions: Mycobacterium tuberculosis
[8] = blockers of CRF-binding protein–CRF-R2 complex – cell-based, uHTS hits, 384-well, dose response (AID 651639); type: functional, Homo sapiens; conditions: read-out: IC50_Mean
[9] = biological target: T3, Corticotropin-releasing factor receptor 2/Corticotropin-releasing factor-binding protein (Homo sapiens, UniProt P24387+Q13324); test: activators of CRF receptor 2 with binding protein – uHTS hits, confirmation (AID 602473); type: functional; conditions: read-out: EC50_Mean
T3 sequence (Q13324 whole entry): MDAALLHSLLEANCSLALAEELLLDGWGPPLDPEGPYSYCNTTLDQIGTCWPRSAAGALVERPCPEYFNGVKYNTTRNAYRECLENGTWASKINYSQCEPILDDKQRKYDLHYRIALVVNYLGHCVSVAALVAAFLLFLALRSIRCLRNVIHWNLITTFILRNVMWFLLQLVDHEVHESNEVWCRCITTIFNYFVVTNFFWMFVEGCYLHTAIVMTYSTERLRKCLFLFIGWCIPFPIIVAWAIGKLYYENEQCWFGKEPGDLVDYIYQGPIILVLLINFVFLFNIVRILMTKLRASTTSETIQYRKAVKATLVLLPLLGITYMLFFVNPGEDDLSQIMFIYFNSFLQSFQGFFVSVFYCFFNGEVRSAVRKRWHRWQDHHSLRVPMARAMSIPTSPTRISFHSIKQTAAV
T3 sequence (P24387 whole entry): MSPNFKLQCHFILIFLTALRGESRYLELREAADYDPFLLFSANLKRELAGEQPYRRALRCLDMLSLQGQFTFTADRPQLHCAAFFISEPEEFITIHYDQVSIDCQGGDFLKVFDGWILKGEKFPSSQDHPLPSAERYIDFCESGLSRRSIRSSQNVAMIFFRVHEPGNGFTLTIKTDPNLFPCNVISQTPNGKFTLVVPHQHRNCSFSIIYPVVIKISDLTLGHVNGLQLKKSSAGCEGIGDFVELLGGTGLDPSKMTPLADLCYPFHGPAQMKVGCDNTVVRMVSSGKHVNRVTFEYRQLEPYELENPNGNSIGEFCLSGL

[10] = biological target: T3, Corticotropin-releasing factor receptor 2/Corticotropin-releasing factor-binding protein; test: Dose Response confirmation of uHTS hits for small molecule antagonists of the CRF-binding protein and CRF-R2 receptor complex.; type: functional; conditions: read-out: IC50_Mean
[11] = biological target: Peroxisome proliferator-activated receptor gamma/Nuclear receptor coactivator 3 (Homo sapiens, UniProt P37231); test: TR-FRET dose response biochemical High Throughput Screening assay for agonists of the steroid receptor coactivator 3 (SRC-3) recruitment by the peroxisome proliferator-activated receptor gamma (PPAR gamma): non-selective agonists. [Related pubchem assays: 1301 (Confirmation screen.), 1048 (Primary screen.)]; type: functional
[12] = biological target: Peroxisome proliferator-activated receptor gamma/Nuclear receptor coactivator 1 (Homo sapiens, UniProt P37231); test: TR-FRET dose response biochemical High Throughput Screening assay for agonists of the steroid receptor coactivator 1 (SRC-1) recruitment by the peroxisome proliferator-activated receptor gamma (PPAR gamma): non-selective agonists. [Related pubchem assays (depositor defined):AID1300, AID1808, AID504735, AID631]; type: protein assay
[13] = biological target: Peroxisome proliferator-activated receptor gamma/Nuclear receptor coactivator 2 (Homo sapiens, UniProt P37231); test: TR-FRET dose response biochemical High Throughput Screening assay for agonists of the steroid receptor coactivator 2 (SRC-2) recruitment by the peroxisome proliferator-activated receptor gamma (PPAR gamma): non-selective agonists. [Related pubchem assays: 1297, 1032 ]; type: functional
[14] = biological target: FAD-linked sulfhydryl oxidase ALR (Homo sapiens, UniProt P55789); test: ALR-catalysed DTT oxidation blockers – biochemical, H2O2 detection, luminescence, cherry-pick, dose response (AID 493248)
Protein Wnt-3a = Protein Wnt-3a (Mus musculus, UniProt P27467); test: antagonism of Wnt3a pathway luciferase reporter – Wnt-LIGHT cells, luminescence, selectivity assay for Gli-SUFU antagonist project, dose response (AID 651570); type: functional; conditions: read-out: IC50_Mean;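 note: Wnt-LIGHT reporter cells stimulated with conditioned medium from Wnt3a-producing cells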
[15] = biological target: T4, Low molecular weight phosphotyrosine protein phosphatase (Homo sapiens, UniProt P24666); type: functional; conditions: read-out: IC50_Mean;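 note: Dose-response confirmation assay measuring inhibition of LMPTP enzyme activity by fluorescence intensity read-out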
T4 sequence (P24666 whole entry): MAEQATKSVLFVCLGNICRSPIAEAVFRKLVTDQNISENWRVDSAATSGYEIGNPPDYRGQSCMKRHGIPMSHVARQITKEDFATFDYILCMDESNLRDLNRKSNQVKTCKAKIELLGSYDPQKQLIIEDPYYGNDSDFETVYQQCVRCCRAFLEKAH

[16] = biological target: T5, Carboxy-terminal domain RNA polymerase II polypeptide A small phosphatase 1 (Homo sapiens, UniProt Q9GZU7); test: CTDSP1 inhibitors, concentration-response, biochemical, absorbance readout, ultra-high-throughput screen actives (AID 540297); type: functional
T5 sequence (Q9GZU7 whole entry): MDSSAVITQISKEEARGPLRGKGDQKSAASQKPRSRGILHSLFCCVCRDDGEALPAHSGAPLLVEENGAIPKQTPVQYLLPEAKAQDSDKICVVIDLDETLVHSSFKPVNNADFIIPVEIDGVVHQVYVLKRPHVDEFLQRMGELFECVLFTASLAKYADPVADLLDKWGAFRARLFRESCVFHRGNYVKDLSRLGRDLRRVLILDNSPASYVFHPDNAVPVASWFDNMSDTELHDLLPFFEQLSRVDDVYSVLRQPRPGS

Aminopeptidase N = biological target: T6, Aminopeptidase N (Plasmodium falciparum FcB1/Columbia, UniProt O96935); test: malaria alanyl aminopeptidase activity blockers – biochemical, fluorogenic H-Leu-NHMec substrate, 1536-well (AID 1445); parameters: species or system Plasmodium falciparum 3D7, 3D7
T6 sequence (O96935 whole entry): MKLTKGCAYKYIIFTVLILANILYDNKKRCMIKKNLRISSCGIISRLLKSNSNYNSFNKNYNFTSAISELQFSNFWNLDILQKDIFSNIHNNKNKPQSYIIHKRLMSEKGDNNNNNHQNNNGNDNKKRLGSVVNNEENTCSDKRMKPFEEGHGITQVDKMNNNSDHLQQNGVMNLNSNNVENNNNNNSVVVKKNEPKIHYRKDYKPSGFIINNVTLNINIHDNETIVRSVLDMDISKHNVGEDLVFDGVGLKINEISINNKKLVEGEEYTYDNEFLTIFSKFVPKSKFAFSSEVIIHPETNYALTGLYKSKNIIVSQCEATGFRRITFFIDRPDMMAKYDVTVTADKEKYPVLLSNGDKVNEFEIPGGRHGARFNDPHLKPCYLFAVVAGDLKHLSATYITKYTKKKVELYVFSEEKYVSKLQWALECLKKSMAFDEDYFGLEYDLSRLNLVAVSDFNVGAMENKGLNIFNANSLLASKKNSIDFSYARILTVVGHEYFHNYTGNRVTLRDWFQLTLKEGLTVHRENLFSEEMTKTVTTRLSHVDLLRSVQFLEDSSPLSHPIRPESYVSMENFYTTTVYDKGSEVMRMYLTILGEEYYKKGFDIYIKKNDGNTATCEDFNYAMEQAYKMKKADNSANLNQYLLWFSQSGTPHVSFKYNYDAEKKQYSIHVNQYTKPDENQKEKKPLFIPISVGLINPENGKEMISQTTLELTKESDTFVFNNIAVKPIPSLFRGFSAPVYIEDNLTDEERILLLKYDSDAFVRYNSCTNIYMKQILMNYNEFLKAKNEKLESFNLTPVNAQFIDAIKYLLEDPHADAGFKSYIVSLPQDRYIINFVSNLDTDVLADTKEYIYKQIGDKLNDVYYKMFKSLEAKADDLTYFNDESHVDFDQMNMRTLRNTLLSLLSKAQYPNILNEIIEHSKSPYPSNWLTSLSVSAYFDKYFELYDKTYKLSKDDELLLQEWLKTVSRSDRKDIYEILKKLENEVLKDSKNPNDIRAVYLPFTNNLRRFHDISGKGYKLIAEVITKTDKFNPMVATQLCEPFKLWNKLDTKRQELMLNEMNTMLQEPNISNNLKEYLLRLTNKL

Genome polyprotein = Genome polyprotein (dengue virus type 2, UniProt P29990); test: flavivirus cap methylation enzyme inhibition – biochemical, confirmation dose response, primary screen (AID 588689); type: functional

Chain of Peroxisome proliferator-activated receptor gamma/Nuclear receptor coactivator 1 (P37231 whole entry): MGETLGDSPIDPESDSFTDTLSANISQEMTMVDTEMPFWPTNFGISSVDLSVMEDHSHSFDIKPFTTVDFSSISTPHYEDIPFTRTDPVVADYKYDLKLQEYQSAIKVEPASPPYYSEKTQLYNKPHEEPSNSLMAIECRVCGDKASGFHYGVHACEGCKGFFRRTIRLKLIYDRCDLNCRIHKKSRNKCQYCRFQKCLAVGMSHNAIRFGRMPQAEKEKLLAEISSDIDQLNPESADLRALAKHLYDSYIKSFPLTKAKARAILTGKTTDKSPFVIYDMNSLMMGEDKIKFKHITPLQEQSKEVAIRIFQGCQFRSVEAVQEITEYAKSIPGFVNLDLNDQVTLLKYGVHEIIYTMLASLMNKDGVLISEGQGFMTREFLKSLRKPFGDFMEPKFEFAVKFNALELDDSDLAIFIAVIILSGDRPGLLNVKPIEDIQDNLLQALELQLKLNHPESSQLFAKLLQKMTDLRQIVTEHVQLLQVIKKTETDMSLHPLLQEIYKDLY
Chain of Peroxisome proliferator-activated receptor gamma/Nuclear receptor coactivator 1 (Q15788 whole entry, further chain): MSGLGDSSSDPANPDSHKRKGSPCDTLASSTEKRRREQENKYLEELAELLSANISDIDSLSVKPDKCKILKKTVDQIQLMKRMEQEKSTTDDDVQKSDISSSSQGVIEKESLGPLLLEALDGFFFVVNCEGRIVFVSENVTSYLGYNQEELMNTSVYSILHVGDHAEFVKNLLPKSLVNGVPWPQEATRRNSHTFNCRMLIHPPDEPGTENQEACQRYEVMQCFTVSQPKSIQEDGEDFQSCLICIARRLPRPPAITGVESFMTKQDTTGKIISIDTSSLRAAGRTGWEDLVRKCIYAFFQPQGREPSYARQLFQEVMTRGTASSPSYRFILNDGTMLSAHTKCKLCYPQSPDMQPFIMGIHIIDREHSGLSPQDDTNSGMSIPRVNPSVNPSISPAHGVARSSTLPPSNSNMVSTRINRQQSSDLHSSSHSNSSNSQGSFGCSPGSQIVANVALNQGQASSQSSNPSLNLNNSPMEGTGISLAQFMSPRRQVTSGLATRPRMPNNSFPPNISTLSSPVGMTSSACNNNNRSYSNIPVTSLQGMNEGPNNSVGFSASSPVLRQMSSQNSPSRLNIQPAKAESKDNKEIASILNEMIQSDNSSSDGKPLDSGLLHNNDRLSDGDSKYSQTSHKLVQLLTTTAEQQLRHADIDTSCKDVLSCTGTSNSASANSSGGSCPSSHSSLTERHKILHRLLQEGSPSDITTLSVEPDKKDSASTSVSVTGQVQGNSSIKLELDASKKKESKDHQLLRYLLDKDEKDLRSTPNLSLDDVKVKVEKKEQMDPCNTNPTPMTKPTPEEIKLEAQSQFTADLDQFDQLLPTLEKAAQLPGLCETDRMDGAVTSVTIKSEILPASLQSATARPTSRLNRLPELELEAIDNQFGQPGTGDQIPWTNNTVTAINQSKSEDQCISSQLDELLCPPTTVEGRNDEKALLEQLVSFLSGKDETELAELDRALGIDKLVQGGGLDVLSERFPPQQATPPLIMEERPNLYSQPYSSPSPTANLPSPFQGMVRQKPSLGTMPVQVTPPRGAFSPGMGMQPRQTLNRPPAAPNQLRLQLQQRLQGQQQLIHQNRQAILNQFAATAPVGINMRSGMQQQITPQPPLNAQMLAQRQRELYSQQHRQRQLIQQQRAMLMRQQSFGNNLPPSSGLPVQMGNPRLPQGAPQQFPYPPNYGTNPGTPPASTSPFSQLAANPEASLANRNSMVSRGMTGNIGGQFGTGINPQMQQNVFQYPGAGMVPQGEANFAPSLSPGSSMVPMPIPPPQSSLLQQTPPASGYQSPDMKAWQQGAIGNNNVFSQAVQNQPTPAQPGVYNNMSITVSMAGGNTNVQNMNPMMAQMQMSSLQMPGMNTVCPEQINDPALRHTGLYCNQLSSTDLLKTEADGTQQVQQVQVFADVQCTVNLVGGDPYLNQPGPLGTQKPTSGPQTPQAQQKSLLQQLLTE
Chain of Peroxisome proliferator-activated receptor gamma/Nuclear receptor coactivator 2 (P37231 whole entry): as the sequence (P37231 whole entry) above
Chain of Peroxisome proliferator-activated receptor gamma/Nuclear receptor coactivator 2 (Q15596 whole entry, further chain): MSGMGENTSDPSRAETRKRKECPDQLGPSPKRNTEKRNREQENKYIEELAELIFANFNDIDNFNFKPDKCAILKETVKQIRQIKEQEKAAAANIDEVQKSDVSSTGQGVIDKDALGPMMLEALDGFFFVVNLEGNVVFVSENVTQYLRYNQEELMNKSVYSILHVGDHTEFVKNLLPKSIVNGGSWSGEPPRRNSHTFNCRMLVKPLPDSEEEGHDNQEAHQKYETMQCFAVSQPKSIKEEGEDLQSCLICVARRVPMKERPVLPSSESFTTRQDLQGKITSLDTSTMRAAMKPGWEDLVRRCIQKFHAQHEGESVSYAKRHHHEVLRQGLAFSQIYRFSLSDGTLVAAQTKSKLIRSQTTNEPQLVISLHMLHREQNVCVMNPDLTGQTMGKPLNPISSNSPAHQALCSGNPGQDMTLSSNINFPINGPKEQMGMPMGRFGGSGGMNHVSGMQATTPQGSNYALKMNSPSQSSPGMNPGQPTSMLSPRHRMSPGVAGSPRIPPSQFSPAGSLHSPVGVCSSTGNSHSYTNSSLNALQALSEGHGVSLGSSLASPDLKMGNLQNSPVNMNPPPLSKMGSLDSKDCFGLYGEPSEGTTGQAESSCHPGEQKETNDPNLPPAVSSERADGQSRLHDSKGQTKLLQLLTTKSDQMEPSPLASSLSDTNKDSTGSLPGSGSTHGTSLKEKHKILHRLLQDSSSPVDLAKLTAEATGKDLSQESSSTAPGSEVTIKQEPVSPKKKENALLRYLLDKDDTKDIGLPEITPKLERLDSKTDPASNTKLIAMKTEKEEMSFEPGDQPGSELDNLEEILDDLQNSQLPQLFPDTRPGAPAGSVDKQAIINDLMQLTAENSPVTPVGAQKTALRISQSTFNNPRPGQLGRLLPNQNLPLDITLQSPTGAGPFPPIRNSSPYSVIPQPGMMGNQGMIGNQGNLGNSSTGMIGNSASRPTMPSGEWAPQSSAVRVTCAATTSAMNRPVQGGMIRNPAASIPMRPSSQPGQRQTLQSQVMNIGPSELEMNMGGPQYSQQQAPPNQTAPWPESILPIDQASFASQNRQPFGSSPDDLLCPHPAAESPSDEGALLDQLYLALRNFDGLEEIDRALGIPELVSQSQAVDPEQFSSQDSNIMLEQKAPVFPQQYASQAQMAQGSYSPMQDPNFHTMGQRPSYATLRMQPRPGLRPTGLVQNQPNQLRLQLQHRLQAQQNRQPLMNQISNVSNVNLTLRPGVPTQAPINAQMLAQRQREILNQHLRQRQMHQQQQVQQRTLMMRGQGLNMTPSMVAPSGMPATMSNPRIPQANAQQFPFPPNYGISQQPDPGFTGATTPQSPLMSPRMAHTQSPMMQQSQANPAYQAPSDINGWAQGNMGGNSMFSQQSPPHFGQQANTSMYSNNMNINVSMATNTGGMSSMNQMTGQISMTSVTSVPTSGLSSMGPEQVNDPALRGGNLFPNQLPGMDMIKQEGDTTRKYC
Chain of Protein Wnt-3a (P27467 whole entry): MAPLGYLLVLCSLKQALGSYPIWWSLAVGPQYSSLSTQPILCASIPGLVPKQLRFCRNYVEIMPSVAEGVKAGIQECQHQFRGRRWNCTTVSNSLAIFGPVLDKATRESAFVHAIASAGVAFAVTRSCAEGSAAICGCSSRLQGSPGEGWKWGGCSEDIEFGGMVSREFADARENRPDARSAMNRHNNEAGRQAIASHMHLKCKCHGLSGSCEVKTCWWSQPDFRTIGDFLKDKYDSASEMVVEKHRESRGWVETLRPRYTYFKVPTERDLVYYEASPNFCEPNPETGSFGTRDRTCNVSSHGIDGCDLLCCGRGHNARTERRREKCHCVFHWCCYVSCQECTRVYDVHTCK
Chain of FAD-linked sulfhydryl oxidase ALR (P55789 whole entry): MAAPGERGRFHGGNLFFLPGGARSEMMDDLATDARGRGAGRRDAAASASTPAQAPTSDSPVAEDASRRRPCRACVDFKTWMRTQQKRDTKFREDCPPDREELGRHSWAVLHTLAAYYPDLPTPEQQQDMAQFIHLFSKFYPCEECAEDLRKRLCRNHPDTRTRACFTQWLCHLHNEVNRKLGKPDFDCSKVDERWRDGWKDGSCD

COc1ccccc1NC(=O)N1CCCC(C(=O)Nc2cccc(C)c2C)C1 (stereo not drawn)
IC50 [1]: > 67.6 µM (inactive) | IC50 (HEK293): > 67.6 µM (inactive)

Cc1cc(NC(=O)C2CCCCC2)n(-c2nc3ccccc3[nH]2)n1
EC50 [2]: 16.9 µM (active) | CC50 [3]: > 40 µM (active) | IC50 (cells): 5.56 µM (active) | CC50 [4]: > 20 µM (active) | EC50 [5]: 13.6 µM (active)

CC1(C)Cc2c(sc3nc(C4CC4)n(N)c(=O)c23)CO1
IC50 [1]: > 67.6 µM (inactive) | EC50 [6]: > 195 µM (not active) | IC50 (HEK293): > 67.6 µM (inactive)

O=C(CCN1C(=O)/C(=C/c2ccccc2Cl)SC1=S)N1CCCC1
CC50 [3]: 19.7 µM (active) | IC50 (cells): 28.4 µM (active) | CC50 [4]: 11.4 µM (active) | CC50 [7]: 8.2 µM (active)

CC(C)c1cc(C(F)(F)F)nc(NNc2nc(C(C)C)cc(C(F)(F)F)n2)n1
IC50 [8]: > 20 µM (inactive) | EC50 [9]: > 53 µM (inactive) | IC50 [10]: 988 nM (active)

COc1ccc(Br)cc1-c1nc(CCl)cs1
EC50 [11]: > 79.4 µM (not active) | EC50 [12]: 9.93 µM (active) | EC50 [13]: 5.52 µM (active) | AC50 [14]: 14.1 µM (active)

CCCCOc1ccc(N2C(N)=NC(N)=NC23CCCCC3)cc1
IC50 (Protein Wnt-3a): 18.3 µM (active)

C#CCOC(=O)C[N+](C)(C)CC#Cc1ccccc1
IC50 [1]: > 67.6 µM (inactive) | IC50 (HEK293): > 67.6 µM (inactive)

O=C(/C=C/c1cccc([N+](=O)[O-])c1)Nc1ccc(NC(=O)c2cccs2)cc1
IC50 [15]: 27.3 µM (inactive) | IC50 [16]: 4.11 µM (active)

CC(C)Sc1snnc1-c1ccccc1
IC50 [8]: > 20 µM (inactive) | EC50 [9]: > 53 µM (inactive) | IC50 [10]: < 368 nM (active)

COC(=O)C1=C(c2cc3ccccc3o2)C[C@@H]2CC[C@H]1N2C(=O)N1CCC(C)CC1
IC50 (Protein Wnt-3a): 24.4 µM (inactive)

CCc1c(C)c2ccc(O)c(CN(C)C)c2oc1=O
IC50 (Aminopeptidase N): 28.9 µM (active)

O=C(O)COc1ccccc1/C=N/Nc1ccc(S(=O)(=O)Nc2ccc(Cl)cc2)cc1[N+](=O)[O-]
IC50 (Genome polyprotein): 36.7 µM (active) | IC50 (Aminopeptidase N): 38.9 µM (active)

COc1ccc([N+](=O)[O-])cc1NC(=S)NC(C)=O
IC50 [1]: > 67.6 µM (inactive) | IC50 (HEK293): > 67.6 µM (inactive)

CC(Sc1nc(N2CCCCC2)c2c(c1C#N)CCCC2)C(=O)O (stereo not drawn)
EC50 [11]: > 79.4 µM (not active) | EC50 [12]: 33.9 µM (inactive) | EC50 [13]: 64.9 µM (not active)
